Data from patent US20250332112A1, “IONIZABLE CATIONIC LIPIDS FOR LIPID NANOPARTICLES” (GENEVANT SCIENCES GMBH, priority 2022, published 2025).

What was measured:
[1] = test system: luciferase activity in the liver; assay: Luciferase activity in liver after intravenous luciferase mRNA LNP; format: in vivo; details: 0.5 mg/kg IV, 6 h post-IV administration, BALB/c mice (n = 4)
Description: Frozen aliquots of liver were thawed and homogenized in 1 mL of 1×CCLR (Cell Culture Lysis Reagent) using a FastPrep® homogenizer. The homogenate was then centrifuged at 16,000 RPM for 10 minutes at 4° C. Twenty (20) μL of the supernatant was loaded into a 96-well white plate and luminescence measured following addition of luciferase reagent (Promega Luciferase Assay System). Luciferase activity was determined by comparing luminescence of the homogenized samples to luciferase protein standards. To account for any quenching of luminescence by components in the liver homogenate, luciferase was added to the liver homogenates of untreated animals and the resulting luminescence measured. The resulting quench factor was applied to all samples to obtain the corrected luciferase activity, and normalized per unit mass of tissue analyzed.

[2] = Particle characteristics of LNPs containing luciferase mRNA and novel ionizable lipids; format: physicochemical
Description: The lipid solution contains 4 components: a PEG-conjugated lipid, an ionizable lipid, cholesterol, and a phospholipid (e.g., DSPC). Lipid stocks were prepared using the lipid identities and molar ratios as described, to achieve a total concentration of ˜7 mg/mL in 100% ethanol. Firefly luciferase mRNA (TriLink Biotechnologies, L-7202) or ornithine transcarbamylase (OTC) mRNA (TriLink Biotechnologies, custom designed) was diluted in acetate, pH 5 buffer and nuclease free water to achieve a target concentration of 0.366 mg/mL mRNA in 100 mM acetate, pH 5. Equal volumes of the lipid and nucleic acid solutions were blended at a flow rate of 400 mL/min through a T-connector, and diluted with ˜4 volumes of PBS, pH 7.4. Formulations were placed in Slide-A-Lyzer dialysis units (MWCO 10,000) and dialyzed overnight against 10 mM Tris, 500 mM NaCl, pH 8 buffer. Following dialysis, the formulations were concentrated to ˜0.6 mg/mL using VivaSpin concentrator units (MWCO 100,000) and dialyzed overnight against 5 mM Tris, 10% sucrose, pH 8 buffer. Formulations were filtered through a 0.2 μm syringe filter (PES membrane). Nucleic acid concentration was determined by the RiboGreen assay. Particle size and polydispersity were determined using a Malvern Nano Series Zetasizer.
LNP formulations containing novel ionizable lipids all produced stable particles with high encapsulation efficiency (Tables 1-7).

[3] = Table 2, luciferase mRNA LNP 1.6:54.6:32.8:10.9
[4] = Table 5, luciferase mRNA LNP 1.6:54.6:32.8:10.9
[5] = Table 1, luciferase mRNA LNP 1.6:54.6:32.8:10.9

CCCCCCCCCC(=O)N(CCCN(C)C)C(CCCCCCCCC)CCOC(=O)C(F)(CCCCCC)CCCCCCCC (centres unmarked) [Compound 40, 3-{N-[3-(dimethylamino)propyl]decanamido}dodecyl 2-fluoro-2-hexyldecanoate]
Luc Activity ([1]; Table 9): 3.57E+07 pg/g liver | Final Product % EE [2, 3]: 98% | Final Product PDI [2, 3]: (0.05) | Final Product Z-avg [2, 3]: 87 nm

CCCCCCCCCCC(CCCCCCC(=O)OCC(CCCCCC)CCCCCCCC)N(OCCCN(C)C)C(=O)CCCCCCC(=O)OCC(CCCC)CCCCCC (centres unmarked) [Compound 41, 2-hexyldecyl 8-{8-[(2-butyloctyl)oxy]-N-[3-(dimethylamino)propoxy]-8-oxooctanamido}octadecanoate]
Luc Activity ([1]; Table 12): 6.69E+06 pg/g liver | Final Product % EE [2, 4]: 94% | Final Product PDI [2, 4]: 0.04 | Final Product Z-avg [2, 4]: 70 nm

CCCCCCCCCCC(CCCCCC(=O)OCC(CCCCCC)CCCCCCCC)N(OCCCN(C)C)C(=O)CCCCCCCCC (centres unmarked) [Compound 42, 2-hexyldecyl 7-{N-[3-(dimethylamino)propoxy]decanamido}heptadecanoate]
Luc Activity ([1]; Table 12): 1.14E+07 pg/g liver | Final Product % EE [2, 4]: 97% | Final Product PDI [2, 4]: 0.10 | Final Product Z-avg [2, 4]: 65 nm

CCCCCCCCCCON(C(=O)CCCN(C)C)C(CCCCCCCCCC)CCCCCC(=O)OCC(CCCCCC)CCCCCCCC (centres unmarked) [Compound 44, 2-Hexyldecyl 7-(N-(decyloxy)-4-(dimethylamino)butanamido)heptadecanoate]
Luc Activity ([1]; Table 12): 6.17E+07 pg/g liver | Final Product % EE [2, 4]: 98% | Final Product PDI [2, 4]: 0.06 | Final Product Z-avg [2, 4]: 68 nm

CCCCCCCCCC(CC(=O)OCC(CCCCCC)CCCCCCCC)N(CCCN(C)C)S(=O)(=O)CCCCCCCC (centres unmarked) [Compound 48, 2-hexyldecyl 3-{N-[3-(dimethylamino)propyl]octane-1-sulfonamido}dodecanoate]
Luc Activity ([1]; Table 8): 6.49E+06 pg/g liver | Final Product % EE [2, 5]: 96% | Final Product PDI [2, 5]: 0.04 | Final Product Z-avg ([2]; Table 1, luciferase mRNA LNP 1.6:54.6:32.8:10.9 PEG2000-C-DMA:Ionizable lipid:Cholesterol:DSPC): 71 nm

CCCCCCCCCCC(CCCCCCC(=O)OCC(CCCCCC)CCCCCCCC)N(CCCCCCCC(=O)OCC(CCCCCC)CCCCCCCC)C(=O)CCCN(C)C (centres unmarked) [Compound 63]
Luc Activity ([1]; Table 12): 6.23E+07 pg/g liver

CCCCCCCCCCC(CCCCCCC(=O)OCC(CCCCCC)CCCCCCCC)N(CCCCCCCC(=O)OCC(CCCCCC)CCCCCCCC)C(=O)CCCCN(C)C (centres unmarked) [Compound 64]
Luc Activity ([1]; Table 12): 9.76E+07 pg/g liver

CCCCCCCCCCC(CCCCCCC(=O)OC(CCCCCCCC)CCCCCCCC)N(CCCCCCCC(=O)OCCC(CCCCC)CCCCC)C(=O)CCCN(C)C (centres unmarked) [Compound 68]
Luc Activity ([1]; Table 12): 4.36E+07 pg/g liver

CCCCCCCCCCC(CCCCCCC(=O)OCC(CCCCCC)CCCCCCCC)N(CCCN(C)C)C(=O)CCCCCCC(=O)OCC(CCCC)CCCCCC (centres unmarked) [Compound 78]
Luc Activity ([1]; Table 11): 5.30E+07 pg/g liver

CCCCCCCCCCOC(=O)CCCCCCC(=O)N(CCCN(C)C)C(CCCCCCCCCC)CCCCCCC(=O)OCC(CCCCCC)CCCCCCCC (centres unmarked) [Compound 79]
Luc Activity ([1]; Table 11): 1.05E+07 pg/g liver

CCCCCCCCCCC(CCCCCCC(=O)OCC(CCCCCC)CCCCCCCC)N(CCCN(C)C)C(=O)CCCCCCCC(=O)OCC(CCCC)CCCCCC (centres unmarked) [Compound 80]
Luc Activity ([1]; Table 12): 3.28E+07 pg/g liver

CCCCCCCCCCC(CCCCCCC(=O)OCC(CCCCCC)CCCCCCCC)N(CCCN(C)C)C(=O)CCCCCCCCC(=O)OCC(CCCC)CCCCCC (centres unmarked) [Compound 81]
Luc Activity ([1]; Table 12): 3.47E+07 pg/g liver

CCCCCCCCCCC(CCCCCCC(=O)OCC(CCCCCC)CCCCCCCC)N(CCCN(C)C)C(=O)CCCCCCC(=O)OCCC(CCCCC)CCCCC (centres unmarked) [Compound 82]
Luc Activity ([1]; Table 12): 1.23E+07 pg/g liver

CCCCCCCCCCC(CCCCCCC(=O)OCC(CCCCCC)CCCCCCCC)N(CCCN(C)C)C(=O)CCCCCCC(=O)OCc1cc(CCCCCC)cc(CCCCCC)c1 (centres unmarked) [Compound 83]
Luc Activity ([1]; Table 12): 4.59E+07 pg/g liver
